From PubChem BioAssay (NCI)
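Step 1: Grow cells in 96-well plates. Step 2: Expose to compound for 48 hours at 5 concentrations. Step 3: Interpolate endpoints linearly; if unreached, use highest concentration. The concentration for 50% growth inhibition is given as GI50. At the TGI there is no net growth.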

How the values were obtained:
Test in all cases: NCI anticancer screen, dose series, 48 h
MOLT-4 leukemia = tested on: MOLT-4 leukemia
HL-60(TB) leukemia = tested on: HL-60(TB) leukemia
OVCAR-5 ovarian = tested on: OVCAR-5 ovarian
MCF7 breast = tested on: MCF7 breast
UACC-257 melanoma = tested on: UACC-257 melanoma
NCI-H460 lung = tested on: NCI-H460 lung
SW-620 colon = tested on: SW-620 colon
SF-539 CNS = tested on: SF-539 CNS
HCT-116 colon = tested on: HCT-116 colon
SNB-75 CNS = tested on: SNB-75 CNS

| Structure (SMILES) | GI50 (MOLT-4 leukemia) [nM] | TGI (MOLT-4 leukemia) [µM] | GI50 (HL-60(TB) leukemia) [nM] | GI50 (OVCAR-5 ovarian) [nM] | TGI (OVCAR-5 ovarian) [µM] | GI50 (MCF7 breast) [nM] | TGI (MCF7 breast) [µM] | GI50 (UACC-257 melanoma) [µM] | TGI (UACC-257 melanoma) [µM] | GI50 (NCI-H460 lung) [µM] | TGI (NCI-H460 lung) [µM] | GI50 (SW-620 colon) [nM] | TGI (SW-620 colon) [µM] | GI50 (SF-539 CNS) [µM] | TGI (SF-539 CNS) [µM] | GI50 (HCT-116 colon) [µM] | TGI (HCT-116 colon) [µM] | GI50 (SNB-75 CNS) [µM] | TGI (SNB-75 CNS) [µM] | TGI (HL-60(TB) leukemia) [µM] |
| --- | --- | --- | --- | --- | --- | --- | --- | --- | --- | --- | --- | --- | --- | --- | --- | --- | --- | --- | --- | --- |
| CC[C@@]1(OC(=O)CN)C(=O)OCc2c1cc1n(c2=O)Cc2cc3c(N)cccc3nc2-1 | < 10 | 27.7 | < 10 | 45 | 1.12 | < 10 | > 100 | 0.0774 | 1.5 | < 0.01 | 0.114 | 24.7 | 3.78 | < 0.01 | < 0.0153 | – | – | – | – | – |
| Nc1nc(N)c2c(n1)NC(c1ccc(F)cc1)C1CCc3ccccc3C1=N2 (configuration not stated) | – | – | – | 13100 | 26.3 | 2670 | 11 | 5.37 | 17.8 | 3.76 | 13.6 | 4870 | 17.4 | 10.5 | 22.4 | 3.04 | 11.9 | 11.3 | 23.8 | – |
| COc1ccc(CC(=O)NCCc2ccc(OC)c(OC)c2)cc1Br | – | > 100 | – | – | > 100 | – | – | – | > 100 | – | > 100 | – | > 100 | – | > 100 | – | – | – | – | > 100 |
| COc1ccc(/C(=N\O)c2cc(C)c(OC)c(C)c2)cc1O | 52 | > 100 | 11 | 63.1 | > 100 | < 10 | > 100 | – | – | < 0.01 | 15.6 | < 10 | > 100 | – | – | < 0.01 | > 100 | – | – | 0.0607 |
| Cc1cc(NS(=O)(=O)c2ccc(NC(=O)c3ccc(Cl)c4c(Nc5ccc(S(=O)(=O)N=C(N)N)cc5)c5ccccc5nc34)cc2)no1 | – | 41.6 | – | – | > 100 | – | – | – | > 100 | – | > 100 | – | – | – | > 100 | – | > 100 | – | 95.6 | – |
| O=C(NCCCCCCNC(=O)OCCSCCn1cc(C(=O)NC(=O)OCc2ccccc2)c(=O)[nH]c1=O)OCCSCCn1cc(C(=O)NC(=O)OCc2ccccc2)c(=O)[nH]c1=O | – | > 100 | – | – | > 100 | – | – | – | > 100 | – | > 100 | – | > 100 | – | – | – | – | – | – | – |
| O=c1[nH]c(=O)c2cc(C3CC(O)C(CO)O3)ccc2[nH]1 (configuration not stated) | > 100000 | > 100 | – | > 100000 | > 100 | > 100000 | > 100 | > 100 | > 100 | > 100 | > 100 | > 100000 | > 100 | > 100 | > 100 | > 100 | > 100 | 26.8 | > 100 | – |
| Fc1ccccc1C1SCc2nc3ccccc3n21 (configuration not stated) | – | > 100 | – | – | > 100 | – | – | – | > 100 | – | > 100 | – | > 100 | – | > 100 | – | > 100 | – | > 100 | 44.6 |
| CC(C)(CN1CCCCC1)C(=O)/C=C/c1ccc(Cl)cc1 | – | 5.11 | – | – | 23.5 | – | – | – | 19.9 | – | 8.21 | – | 10.8 | – | 5.41 | – | 13 | – | 11.4 | 4.8 |
| O=c1nc(NC(c2ccccc2)(c2ccccc2)c2ccccc2)ccn1CCNCCn1ccc(NC(c2ccccc2)(c2ccccc2)c2ccccc2)nc1=O | – | – | – | – | > 100 | – | – | – | 23.3 | – | 33.8 | – | 31.9 | – | 29.6 | – | 73 | – | > 100 | – |
